The values below come from ChEMBL document CHEMBL3044589, “Effects of propylene oxide doses on Cyperus and Belonolaimus control and nutrient absorption in tomato” (2007).

Calls of active or inactive are those of the source. The calls are words filed in the database; no cut-off is given here.

Test [1] deals with Solanum lycopersicum. Description: Increase in Solanum lycopersicum (tomato) foliar phosphorus concentration at 190 to 950 l/ha applied 12 days prior to transplantation measured after 4 weeks (reference value: 0.31%). In kind it is functional.
Test [2] concerns Solanum lycopersicum. Nature of the test: Increase in Solanum lycopersicum (tomato) plant yield at 190 to 950 l/ha applied 12 days prior to transplantation measured after 12 to 14 weeks. In kind it is functional, organism-based.
The test system of test [3] is Cyperus. Description: Herbicidal activity against Cyperus at 190 to 950 l/ha applied 12 days prior to tomato transplantation measured after 4 to 14 weeks relative to control. In kind it is functional, organism-based.
The test system of test [4] is Solanum lycopersicum. Description: Increase in Solanum lycopersicum (tomato) plant yield at 760 l/ha applied 12 days prior to transplantation measured after 12 to 14 weeks relative to untreated-control. In kind it is functional.
A further test has as its system Belonolaimus. Description: Nematocidal activity against Belonolaimus at 190 to 950 l/ha applied 12 days prior to tomato transplantation measured after 14 weeks. In kind it is functional, organism-based.
For test [5], the system named is Cyperus. Nature of the test: Herbicidal activity against Cyperus at 850 l/ha applied 12 days prior to tomato transplantation measured after 14 weeks relative to control. In kind it is functional.
The subject of test [6] is Solanum lycopersicum. Description: Increase in Solanum lycopersicum (tomato) foliar potassium concentration at 190 to 950 l/ha applied 12 days prior to transplantation measured after 4 weeks (reference value: 2.38%). In kind it is functional.
Test [7] concerns Cyperus. Description: Herbicidal activity against Cyperus at 190 l/ha applied 12 days prior to tomato transplantation measured after 4 weeks relative to control. In kind it is functional.
Test [8] has as its system Cyperus. Description: Herbicidal activity against Cyperus at 775 l/ha applied 12 days prior to tomato transplantation measured after 8 weeks relative to control. In kind it is functional.
For test [9], the system named is Solanum lycopersicum. Description: Increase in Solanum lycopersicum (tomato) plant yield at […] applied 12 days prior to transplantation measured after 12 to 14 weeks relative to untreated-control. In kind it is functional.
Test [10] has as its system Solanum lycopersicum. Nature of the test: Increase in Solanum lycopersicum (tomato) plant vigor at 190 to 950 l/ha applied 12 days prior to transplantation measured after 10 weeks. In kind it is functional, organism-based.

On to `CC1CO1` (stereo unspecified) [PROPYLENE OXIDE], for which the Activity is recorded as 0.51% in the test on Solanum lycopersicum [1]; 80% in the test on Cyperus [5]; 3.25% with Solanum lycopersicum [6]; 80% in the test with Cyperus [7]; 80% in the test with Cyperus [8]. The result in the test on Solanum lycopersicum [2], with Cyperus [3], in the test on Belonolaimus and in the test with Solanum lycopersicum [10] was Active. Moreover, the “fold change (FC)” value in the test on Solanum lycopersicum [4] is on record as 4.1; in the test on Solanum lycopersicum [9], 3.5.
